Each molecule was assayed on Plasmodium falciparum (assay: Inhibition against Plasmodium falciparum Dd2 in erythrocytes in semiautomated micro dilution assay).
Format: functional, organism-based

IC50 [nM]	Compound
60	CCS(=O)(=O)c1ccc(-c2ccc(/C=C/C(=O)Nc3ccc(NC(=O)Cc4ccc(C)cc4)c(C(=O)c4ccccc4)c3)o2)cc1
560	Cc1ccc(CC(=O)Nc2ccc(NC(=O)/C=C/c3ccc(-c4ccc(C(N)=O)cc4)o3)cc2C(=O)c2ccccc2)cc1
67	CC(=O)c1ccc(-c2ccc(/C=C/C(=O)Nc3ccc(NC(=O)Cc4ccc(C)cc4)c(C(=O)c4ccccc4)c3)o2)cc1
200	Cc1ccc(CC(=O)Nc2ccc(NC(=O)/C=C/c3ccc(-c4ccc(S(N)(=O)=O)cc4)o3)cc2C(=O)c2ccccc2)cc1
170	COC(=O)c1ccc(-c2ccc(/C=C/C(=O)Nc3ccc(NC(=O)Cc4ccc(C)cc4)c(C(=O)c4ccccc4)c3)o2)cc1
220	Cc1ccc(CC(=O)Nc2ccc(NC(=O)/C=C/c3ccc(-c4ccc(C#N)cc4)o3)cc2C(=O)c2ccccc2)cc1
260	Cc1ccc(CC(=O)Nc2ccc(NC(=O)/C=C/c3ccc(-c4ccc(N)cc4)o3)cc2C(=O)c2ccccc2)cc1
560	CC(=O)Nc1ccc(-c2ccc(/C=C/C(=O)Nc3ccc(NC(=O)Cc4ccc(C)cc4)c(C(=O)c4ccccc4)c3)o2)cc1
37	Cc1ccc(CC(=O)Nc2ccc(NC(=O)/C=C/c3ccc(-c4ccc(S(C)(=O)=O)cc4)o3)cc2C(=O)c2ccccc2)cc1
77	Cc1ccc(CC(=O)Nc2ccc(NC(=O)/C=C/c3ccc(-c4ccc(C(F)(F)F)cc4)o3)cc2C(=O)c2ccccc2)cc1
280	Cc1ccc(CC(=O)Nc2ccc(NC(=O)/C=C/c3ccc(-c4ccc(NC=O)cc4)o3)cc2C(=O)c2ccccc2)cc1
